Measurements reported in BindingDB's records for doi:10.7270/Q2TX3CTT (Broad Institute, 2010).
Where a name gives a salt, the structure may show the parent alone.

Target: Glycogen synthase kinase-3 beta (Homo sapiens, UniProt P49841)
Experiment: concentration-response blocking of human GSK3B – biochemical, luminescence, cell-free homogeneous, retest, dose response (AID 434954)

Chain of Glycogen synthase kinase-3 beta (P49841 whole entry): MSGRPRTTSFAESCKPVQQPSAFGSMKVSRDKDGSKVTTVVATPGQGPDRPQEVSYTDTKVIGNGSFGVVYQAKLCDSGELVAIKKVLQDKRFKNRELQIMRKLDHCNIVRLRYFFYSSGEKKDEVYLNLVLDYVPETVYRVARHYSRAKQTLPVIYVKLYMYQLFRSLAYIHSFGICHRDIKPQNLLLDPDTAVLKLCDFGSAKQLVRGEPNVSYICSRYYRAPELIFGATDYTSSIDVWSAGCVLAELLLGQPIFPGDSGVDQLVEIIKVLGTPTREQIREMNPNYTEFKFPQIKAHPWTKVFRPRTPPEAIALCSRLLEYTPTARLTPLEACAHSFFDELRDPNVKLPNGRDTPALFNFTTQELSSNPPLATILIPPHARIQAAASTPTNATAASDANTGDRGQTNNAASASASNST

| Structure (SMILES) | EC50 |
| --- | --- |
| CCN1CCN(c2cc(C)c3cc(NC(=O)c4cccc(OC)c4)ccc3n2)CC1 [N-[2-(4-ethylpiperazin-1-yl)-4-methyl-quinolin-6-yl]-3-methoxy-benzamide] | > 300 µM |
| O=C(Nc1ccc(O)c2c(=O)cc(-c3ccccc3Cl)oc12)c1ccccc1Cl | > 300 µM |
| CC(C)CNc1nc(N)c([N+](=O)[O-])c(N2CCCCCC2)n1 [6-(azepan-1-yl)-N2-(2-methylpropyl)-5-nitro-pyrimidine-2,4-diamine] | 98 µM |
| CCCCOc1ccc(C=NNC(=O)c2nnn(-c3nonc3N)c2CN2CCCCCC2)cc1 [1-(4-amino-1,2,5-oxadiazol-3-yl)-5-(1-azepanylmethyl)-N-[(4-butoxyphenyl)methylideneamino]-4-triazolecarboxamide] | 55.3 µM |
| O=C(NN=Cc1ccc(-c2ccc(Cl)c(C(=O)O)c2)o1)c1cc2c(ccc3ccccc32)o1 [5-[5-[(benzo[e][1]benzofuran-2-carbonylhydrazinylidene)methyl]furan-2-yl]-2-chlorobenzoic acid] | > 300 µM |
| CCCOC1CCCN(Cc2cn(C)nc2-c2ccccc2F)C1 (stereo not given) [1-[[3-(2-fluorophenyl)-1-methylpyrazol-4-yl]methyl]-3-propoxypiperidine] | > 300 µM |
| O=C(c1cccs1)c1coc2ccc(O)c(CN(CCO)CCO)c12 [[4-[[bis(2-hydroxyethyl)amino]methyl]-5-oxidanyl-1-benzofuran-3-yl]-thiophen-2-yl-methanone;hydrochloride] | > 300 µM |
| S=C1Nc2cc(Cl)ccc2Sc2ccccc21 [MLS000698392] | > 300 µM |
| CNc1nc2c(N)ncnc2n1[C@H]1O[C@@H](CO)[C@H](O)[C@@H]1O [(2S,3S,4R,5S)-2-[6-amino-8-(methylamino)purin-9-yl]-5-(hydroxymethyl)oxolane-3,4-diol] | > 300 µM |
| Nc1nonc1-n1nnc(C(=O)NN=Cc2ccccc2F)c1CN1CCOCC1 [1-(4-azanyl-1,2,5-oxadiazol-3-yl)-N-[(2-fluorophenyl)methylideneamino]-5-(morpholin-4-ylmethyl)-1,2,3-triazole-4-carboxamide] | 92.1 µM |
| Cc1cccc(Nc2nc(NCc3ccco3)nc(N)c2[N+](=O)[O-])c1 [2-N-(furan-2-ylmethyl)-4-N-(3-methylphenyl)-5-nitropyrimidine-2,4,6-triamine] | 64.4 µM |
| Fc1ccc(CNc2nc(-c3cccnc3)nc3ccccc23)cc1 [N-[(4-fluorophenyl)methyl]-2-(3-pyridinyl)-4-quinazolinamine] | > 300 µM |
| Fc1ccc(CSc2ccc3nnc(-c4cccs4)n3n2)cc1 [SMR000236997] | > 300 µM |
| CSCCC(C(=O)NCc1cccs1)N1C(=O)c2ccccc2C1=O (stereo not given) [SMR000150898] | > 300 µM |
| COc1ccc(Nc2nc(N)c([N+](=O)[O-])c(NCCO)n2)cc1 [2-[6-Amino-2-(4-methoxy-phenylamino)-5-nitro-pyrimidin-4-ylamino]-ethanol] | 2.6 µM |
| Nc1nc(NCCOCCO)nc(NCC2CCCO2)c1[N+](=O)[O-] (stereo not given) | 16.7 µM |
| O=c1c2c3c(sc2n2c(S)nnc2n1-c1ccccc1)CCC3 [MLS000779668] | 34 µM |
| COc1ccc(C2c3c(n[nH]c3C)N=C3CC(C)(C)CC(=O)C32)cc1 (stereo not given) | 28.3 µM |
| CCCc1cc(=O)oc2cc(C)c(CN3CCCC3)c(O)c12 [5-hydroxy-7-methyl-4-propyl-6-(1-pyrrolidinylmethyl)-2H-chromen-2-one] | > 300 µM |
| O=C(Nc1ccc(O)c2c(=O)cc(-c3ccccc3Cl)oc12)c1ccc(Cl)cc1Cl | 9.16 µM |
| O=C(CSc1n[nH]c(=O)[nH]c1=O)c1ccc(Cl)cc1Cl [6-[2-(2,4-dichlorophenyl)-2-oxoethyl]sulfanyl-2H-1,2,4-triazine-3,5-dione] | > 300 µM |
| COC(=O)c1nnn(-c2nonc2N)c1CSc1ccccn1 [1-(4-amino-1,2,5-oxadiazol-3-yl)-5-[(2-pyridinylthio)methyl]-4-triazolecarboxylic acid methyl ester] | 21.1 µM |
| Cc1ccc(CNc2nc(N)c([N+](=O)[O-])c(Nc3cccc(F)c3)n2)cc1 [SMR000148340] | > 300 µM |
| CC(C)CC(CO)N1CCN(C(=O)c2ccc(Cl)c(Cl)c2)CCC1=O (stereo not given) [1-(3,4-dichlorobenzoyl)-4-(1-hydroxy-4-methylpentan-2-yl)-1,4-diazepan-5-one] | > 300 µM |

| Structure (SMILES) | EC50 |
| --- | --- |
| O=C(CCc1ccccc1)Nc1cccc([N+](=O)[O-])c1 [MLS000856399] | > 300 µM |
| CN(C)CCCNc1nc(N)c([N+](=O)[O-])c(NCc2ccccc2)n1 [MLS001165050] | 38 µM |
| NC(=NNC(=O)c1ccc(Cl)cc1)c1cnccn1 [N-[(Z)-[azanyl(pyrazin-2-yl)methylidene]amino]-4-chloranyl-benzamide] | > 300 µM |
| OC1(C#CCN2CCOCC2)CCCCC1 | > 300 µM |
| COc1ccc2c(c1)C(=O)C(=O)N2 [5-methoxy-2,3-dihydro-1H-indole-2,3-dione] | > 300 µM |
| Cc1ccc(C(=O)NN=C2CCCc3ccccc32)c(C)c1 [MLS001005817] | > 300 µM |
| O=C(/C=C/c1ccc2ccccc2c1)c1ccoc1 [SMR000179251] | > 300 µM |
| O=C(Nc1cccc2c1C(=O)NC2=O)c1cccc(-n2c(O)ccc2O)c1 | > 300 µM |
| CCOC(=O)c1nnn(-c2nonc2N)c1CSc1nnc(N)s1 [MLS000624994] | > 300 µM |
| CCOc1cc(C2c3c(n[nH]c3C)C(=O)N2c2ccc(Br)cc2)ccc1O (stereo not given) [SMR000059772] | > 300 µM |
| COCCn1c(SCC(=O)Nc2ccc(S(N)(=O)=O)cc2)nc2ccccc21 | > 300 µM |
| CN1CCc2c(sc3c2c(=O)n(-c2ccccc2)c2n[nH]c(=S)n32)C1 [MLS000558136] | 21.7 µM |
| CCn1c(SCC(=O)Nc2cc(Cl)ccc2OC)nnc1C1CC1 [MLS001220637] | > 300 µM |
| Cc1cccc(/C=C2/Sc3ccc(C(=O)NCCCN4CCOCC4)cc3NC2=O)c1 [(2E)-2-[(3-methylphenyl)methylidene]-N-(3-morpholin-4-ylpropyl)-3-oxidanylidene-4H-1,4-benzothiazine-6-carboxamide] | > 300 µM |
| CCOC(=O)c1sc(NC(=O)CSc2nnc(C(C)C)n2C)nc1C [2-[2-(5-Isopropyl-4-methyl-4H-[1,2,4]triazol-3-ylsulfanyl)-acetylamino]-4-methyl-thiazole-5-carboxylic acid ethyl ester] | 26 µM |
| Cc1cc2c(s1)NC(=O)CN=C2c1cccs1 [MLS000072965] | 33.1 µM |
| CCCc1cc(NCc2ccccn2)n2nc(C)c(-c3ccccc3)c2n1 [MLS000762884] | > 300 µM |
| O=[N+]([O-])c1ccc(Cl)cc1NCCCN1CCOCC1 | > 300 µM |
| COc1cccc(C2c3c(n[nH]c3C)N=C3CC(C)(C)CC(=O)C32)c1 (stereo not given) [SMR000347812] | 0.958 µM |
| COc1cccc2c1cc1c(=O)n(CC(=O)N3CCC(C)CC3)nc(C)n12 | > 300 µM |
| CC(C)CNc1nc(N)c([N+](=O)[O-])c(NCC2CCCO2)n1 (stereo not given) | 6.1 µM |
| O=C(O)c1ccccc1Nc1ccc([N+](=O)[O-])cc1 | > 300 µM |
| O=NCc1ccc(Oc2cccc(Cl)c2)c([N+](=O)[O-])c1 [MLS000694755] | 38.2 µM |
| Cc1ccc(S(=O)(=O)N(C)C)cc1NC(=O)c1ccc(OC(F)(F)F)cc1 [SMR000247294] | > 300 µM |

| Structure (SMILES) | EC50 |
| --- | --- |
| Cn1nc2c3ccccc3n(Cc3ccc(F)cc3)c2nc1=S | > 300 µM |
| COc1cc(C=NNC(=O)COc2ccccc2[N+](=O)[O-])ccc1OC(=O)c1ccco1 [SMR000204365] | > 300 µM |
| COc1cc2ncnc(Nc3ccc4c(c3)OCO4)c2cc1OC | > 300 µM |
| N#CCCN1CCCc2cc(/N=N/c3ccc(C(F)(F)F)cc3)ccc21 | > 300 µM |
| CC(C)=CCc1c(O)cc(O)c2c1O[C@H](c1ccc(O)cc1)CC2=O | > 300 µM |
| CN(C)Cc1c(C(=O)NN=Cc2ccccc2OCc2c(F)cccc2Cl)nnn1-c1nonc1N [1-(4-azanyl-1,2,5-oxadiazol-3-yl)-N-[[2-[(2-chloranyl-6-fluoranyl-phenyl)methoxy]phenyl]methylideneamino]-5-[(dimethylamino)methyl]-1,2,3-triazole-4-carboxamide] | 0.116 µM |
| COc1cccc(C(=O)Nc2nnc(C(C)C)s2)c1 [SMR000013475] | > 300 µM |
| C=CCn1c(=O)c(C(=O)NCc2ccc(Cl)cc2)c(O)c2ccccc21 [N-[(4-chlorophenyl)methyl]-2-hydroxy-4-oxo-1-prop-2-enyl-3-quinolinecarboxamide] | > 300 µM |
| CC(C)=CCc1c(O)ccc(C2COc3c(CC=C(C)C)c(O)cc(O)c3C2=O)c1O (stereo not given) [3',8-diprenyldalbergioidin] | > 300 µM |
| CC1(C)CC(=O)C2C(=Nc3ccccc3NC2c2ccc(F)cc2)C1 (stereo not given) [SMR000515995] | > 300 µM |
| C[C@H](NC(=O)[C@@H]1CSC2c3ccccc3C(=O)N21)C(=O)NCc1c(F)cccc1Cl (stereo partly drawn) [(3R)-N-[(2S)-1-[(2-chloro-6-fluorophenyl)methylamino]-1-oxopropan-2-yl]-5-oxo-3,9b-dihydro-2H-thiazolo[2,3-a]isoindole-3-carboxamide] | > 300 µM |
| CC1=Nc2nnnn2C(c2sccc2C)C1C(N)=O (stereo not given) [MLS000528936] | > 300 µM |
| COc1ccccc1Nc1nc(NCCCN(C)C)nc(N)c1[N+](=O)[O-] [N2-[3-(dimethylamino)propyl]-N4-(2-methoxyphenyl)-5-nitro-pyrimidine-2,4,6-triamine] | 2.13 µM |
| Cc1nc(Nc2ccccc2)sc1C(=O)c1ccc(F)cc1 [SMR000567585] | > 300 µM |
| CSc1nc(SCC(=O)NC(c2ccccc2)c2ccccc2)c2c3c(sc2n1)CN(C)CC3 | > 300 µM |
| CCOC(=O)c1cnc2ccc(C(=O)OC)cc2c1Nc1ccc(C(=O)O)cc1 [SMR000273135] | > 300 µM |
| COc1ccc(C(=O)c2ccsc2N)cc1 [MLS001166080] | > 300 µM |
| O=C(CS(=O)(=O)c1ccccc1)Nc1ncc([N+](=O)[O-])s1 [2-(benzenesulfonyl)-N-(5-nitro-1,3-thiazol-2-yl)acetamide] | > 300 µM |
| O=C1N=c2cc(Cl)ccc2=C1NNc1ccc(C(=O)O)cc1 [MLS000759696] | 19.1 µM |
| CCn1c(SCc2ccccc2)nnc1-c1cccs1 | > 300 µM |
| CC1(C)CC(=O)C2C(=Nc3ccccc3NC2c2cccs2)C1 (stereo not given) [9,9-dimethyl-6-thiophen-2-yl-6,8,10,11-tetrahydro-5H-benzo[b][1,4]benzodiazepin-7-one] | > 300 µM |
| Cc1nn(C)c(C(=O)N2CCc3ccccc32)c1Br [SMR000228334] | > 300 µM |
